Laboratory results: patent publication US10669242B2 (priority 2016, dated 2020)

These compounds were tested against T1, recombinant glucosyltransferase domain of C. difficile Toxin B/TcdB (Clostridioides difficile, UniProt P18177) (assay: biochemical).
T1 construct: 6-His (C); purchased R&D Systems 6246-GT
T1 sequence (P18177 1-543): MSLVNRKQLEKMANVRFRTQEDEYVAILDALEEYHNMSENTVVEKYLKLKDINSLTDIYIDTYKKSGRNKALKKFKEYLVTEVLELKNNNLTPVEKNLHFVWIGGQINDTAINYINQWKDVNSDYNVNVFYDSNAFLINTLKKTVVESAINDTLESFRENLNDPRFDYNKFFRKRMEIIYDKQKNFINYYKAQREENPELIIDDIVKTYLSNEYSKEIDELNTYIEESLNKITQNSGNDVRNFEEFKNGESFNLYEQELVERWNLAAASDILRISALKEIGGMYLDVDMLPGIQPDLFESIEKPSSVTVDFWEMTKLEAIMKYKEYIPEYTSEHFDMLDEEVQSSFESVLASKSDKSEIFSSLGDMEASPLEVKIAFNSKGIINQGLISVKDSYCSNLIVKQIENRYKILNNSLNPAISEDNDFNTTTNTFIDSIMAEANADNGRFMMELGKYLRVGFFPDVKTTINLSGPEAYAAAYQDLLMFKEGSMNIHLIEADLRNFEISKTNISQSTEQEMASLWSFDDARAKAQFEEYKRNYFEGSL
In the case of `O=C1Nc2cc(Cl)ccc2C(=O)N(Cc2ccc(C(=O)N3CCCC3=O)cc2)[C@@H]1Cc1ccccn1` [Example 12b, (R)-8-chloro-4-(4-(2-oxopyrrolidine-1-carbonyl)benzyl)-3-(pyridin-2-ylmethyl)-3,4-dihydro-1H-benzo[e][1,4]diazepine-2,5-dione], the IC50 is reported as 1000 to 10000 nM.
`O=C1Nc2cc(Cl)ccc2C(=O)N(Cc2ccc(C(=O)N3CCc4cccnc43)c(Cl)c2)[C@@H]1Cc1ccccn1` [Example 4cd, (R)-8-chloro-4-(3-chloro-4-(2,3-dihydro-1H-pyrrolo[2,3-b]pyridine-1-carbonyl)benzyl)-3-(pyridin-2-ylmethyl)-3,4-dihydro-1H-benzo[e][1,4]diazepine-2,5-dione] was tested, and the IC50 was less than 100 nM.
Work on `Cc1ccnc(NC(=O)c2ccc(CN3C(=O)c4ccc(Cl)cc4NC(=O)[C@H]3Cc3cccnc3)cc2)c1` [Example 4s, (R)-4-((8-chloro-2,5-dioxo-3-(pyridin-3-ylmethyl)-2,3-dihydro-1H-benzo[e][1,4]diazepin-4(5H)-yl)methyl)-N-(4-methylpyridin-2-yl)benzamide] yielded an IC50 of less than 100 nM.
For `CNC(=O)c1cccc(-c2cc(CN3C(=O)c4ccc(Cl)cc4NC(=O)[C@H]3Cc3ccccn3)ccc2C(=O)O)c1` [Example 8p, (R)-5-((8-chloro-2,5-dioxo-3-(pyridin-2-ylmethyl)-2,3-dihydro-1H-benzo[e][1,4]diazepin-4(5H)-yl)methyl)-3′-(methylcarbamoyl)-[1,1′-biphenyl]-2-carboxylic acid], the IC50 was 100 to 999 nM.
`O=C(O)c1ccc(CN2C(=O)c3ccc(Cl)cc3NC(=O)[C@H]2Cc2ccncc2)cc1` [Example 1c] was tested, and the IC50 was 10000 to 35000 nM.
`O=C(O)c1ccc(CN2C(=O)c3ccc([N+](=O)[O-])cc3NC(=O)[C@H]2Cc2ccc(Cl)c(Cl)c2)cc1` [Example 2h] was tested, and the IC50 was 1000 to 10000 nM.
`O=C(O)c1ccc(CN2C(=O)c3ccc(Cl)cc3NC(=O)[C@H]2Cc2cccnc2)cc1` [Example 2a, (R)-4-((8-Chloro-2,5-dioxo-3-(pyridin-3-ylmethyl)-2,3-dihydro-1H-benzo[e][1,4]diazepin-4(5H)-yl)methyl)benzoic Acid] showed an IC50 of 100 to 999 nM.
With `O=C(Nc1ccc(F)cn1)c1ccc(CN2C(=O)c3ccc(Cl)cc3NC(=O)[C@H]2Cc2ccccn2)cc1F` [Example 6c, (R)-4-((8-chloro-2,5-dioxo-3-(pyridin-2-ylmethyl)-2,3-dihydro-1H-benzo[e][1,4]diazepin-4(5H)-yl)methyl)-2-fluoro-N-(5-fluoropyridin-2-yl)benzamide] the IC50 was less than 100 nM.
`O=C(Nc1ccc(CN2C(=O)c3ccc(Cl)cc3NC(=O)[C@H]2Cc2ccccn2)cc1)c1cscn1` [Example 27f] gave an IC50 of less than 100 nM.
With `O=C(CS)Nc1ccc(CN2C(=O)c3ccc(Cl)cc3NC(=O)[C@H]2Cc2ccccn2)cc1` [Example 29a, (R)—N-(4-((8-Chloro-2,5-dioxo-3-(pyridin-2-ylmethyl)-2,3-dihydro-1H-benzo[e][1,4]diazepin-4(5H)-yl)methyl)phenyl)-2-mercaptoacetamide] the IC50 was 1000 to 10000 nM.
With `O=C(O)c1ccc(CN2C(=O)c3ccc(Cl)cc3NC(=O)[C@H]2Cc2ccc(F)cc2)cc1` [Example 3d] the IC50 was 1000 to 10000 nM.
`O=C(O)c1ccc(CN2C(=O)c3ccc(Cl)cc3NC(=O)[C@H]2Cc2ccc(Cl)c(Cl)c2)cc1` [Example 1d] was tested, and the IC50 was 1000 to 10000 nM.
With `O=C1Nc2cc(Cl)ccc2C(=O)N(C[C@H]2CC[C@H](C(=O)Nc3ccc(F)cn3)CC2)[C@@H]1Cc1ccccn1` [Example 4ca, (1R,4r)-4-(((R)-8-chloro-2,5-dioxo-3-(pyridin-2-ylmethyl)-2,3-dihydro-1H-benzo[e][1,4]diazepin-4(5H)-yl)methyl)-N-(5-fluoropyridin-2-yl)cyclohexanecarboxamide] the IC50 was less than 100 nM.
For `Cc1ccnc(NC(=O)c2ccc(CN3C(=O)c4ccc(Cl)cc4NC(=O)[C@H]3Cc3cccnc3)cc2)n1` [Example 5i, (R)-4-((8-chloro-2,5-dioxo-3-(pyridin-3-ylmethyl)-2,3-dihydro-1H-benzo[e][1,4]diazepin-4(5H)-yl)methyl)-N-(4-methylpyrimidin-2-yl)benzamide], the IC50 was less than 100 nM.
With `COc1ccc(COc2cc(CN3C(=O)c4ccc(Cl)cc4NC(=O)[C@H]3C)ccc2C(=O)O)cc1` [Example 38a, (R)-2-(4-Methoxybenzyloxy)-4-((8-chloro-3-methyl-2,5-dioxo-2,3-dihydro-1H-benzo[e][1,4]diazepin-4(5H)-yl)methyl)benzoic Acid] the IC50 was 10000 to 35000 nM.
For `Cc1cnc(NC(=O)c2ccc(CN3C(=O)c4ccc(Cl)cc4NC(=O)[C@H]3Cc3ccccn3)s2)nc1` [Example 5s, (R)-5-((8-chloro-2,5-dioxo-3-(pyridin-2-ylmethyl)-2,3-dihydro-1H-benzo[e][1,4]diazepin-4(5H)-yl)methyl)-N-(5-methylpyrimidin-2-yl)thiophene-2-carboxamide], the IC50 was 100 to 999 nM.
In the case of `O=C(Nc1ccccn1)c1ccc(CN2C(=O)c3cc(Cl)ccc3NC(=O)[C@H]2Cc2cccnc2)cc1` [Example 35h], the IC50 is reported as 100 to 999 nM.
For `O=C(Nc1ccccn1)c1ccc(CN2C(=O)c3ccc(F)cc3NC(=O)[C@H]2Cc2ccc(Cl)c(Cl)c2)cc1` [Example 4q, (R)-4-((3-(3,4-dichlorobenzyl)-8-fluoro-2,5-dioxo-2,3-dihydro-1H-benzo[e][1,4]diazepin-4(5H)-yl)methyl)-N-(pyridin-2-yl)benzamide], the IC50 was 100 to 999 nM.
`O=C(Nc1ccccn1)c1ccc(CN2C(=O)c3ccncc3NC(=O)[C@H]2Cc2cccnc2)cc1` [Example 35n] was tested, and the IC50 was 100 to 999 nM.
In the case of `O=C(O)c1ccc(CN2C(=O)c3ccc(Cl)cc3NC(=O)[C@H]2Cc2ccccn2)cc1-c1cccc(Cl)c1` [Example 8j, (R)-3′-chloro-5-((8-chloro-2,5-dioxo-3-(pyridin-2-ylmethyl)-2,3-dihydro-1H-benzo[e][1,4]diazepin-4(5H)-yl)methyl)-[1,1′-biphenyl]-2-carboxylic acid], the IC50 is reported as 100 to 999 nM.
With `O=C(CO)Nc1ccc(CN2C(=O)c3ccc(Cl)cc3NC(=O)[C@H]2Cc2ccccn2)cc1` [Example 27b] the IC50 was 100 to 999 nM.
`Cc1ccnc(C(=O)c2ccc(CN3C(=O)c4ccc(Cl)cc4NC(=O)[C@H]3Cc3ccccn3)cc2)c1` [Example 11d, (R)-8-chloro-4-(4-(4-methylpicolinoyl)benzyl)-3-(pyridin-2-ylmethyl)-3,4-dihydro-1H-benzo[e][1,4]diazepine-2,5-dione] was tested, and the IC50 was less than 100 nM.
`Cc1cnc2c(c1)CCN2C(=O)c1ccc(CN2C(=O)c3ccc(Cl)cc3NC(=O)[C@H]2Cc2ccccn2)cc1F` [Example 6f, (R)-8-chloro-4-(3-fluoro-4-(5-methyl-2,3-dihydro-1H-pyrrolo[2,3-b]pyridine-1-carbonyl)benzyl)-3-(pyridin-2-ylmethyl)-3,4-dihydro-1H-benzo[e][1,4]diazepine-2,5-dione] showed an IC50 of less than 100 nM.
`COc1ccc(NC(=O)c2ccc(CN3C(=O)c4ccc(Cl)cc4NC(=O)[C@H]3Cc3cccnc3)cc2)nc1` [Example 5g, (R)-4-((8-chloro-2,5-dioxo-3-(pyridin-3-ylmethyl)-2,3-dihydro-1H-benzo[e][1,4]diazepin-4(5H)-yl)methyl)-N-(5-methoxypyridin-2-yl)benzamide] gave an IC50 of less than 100 nM.
`O=C(Nc1ccccn1)c1ccc(CN2C(=O)c3ccc(Cl)cc3NC(=O)[C@H]2Cc2ccc(F)cc2)cc1` [Example 4i, (R)-4-((8-chloro-3-(4-fluorobenzyl)-2,5-dioxo-2,3-dihydro-1H-benzo[e][1,4]diazepin-4(5H)-yl)methyl)-N-(pyridin-2-yl)benzamide] was tested, and the IC50 was less than 100 nM.
